Results taken from patent US12252524B2, “GIP/GLP1 co-agonist compounds” (Eli Lilly and Company, priority 2018, dated 2025).
Where two headings read alike, the source gives them in different places. Numbered stars: 1 amine (or outer) side, 2 acyl side, 3 side chain; on linkers, the order of the positions; unused ones are H or OH. Square brackets hold non-standard residues; d marks the D form. Side chains are listed from the residue outwards. Peptide text beside a SMILES is read from it. * marks the point of attachment. C20 diacid = O=C(O)CCCCCCCCCCCCCCCCCCC(=O)*; C18 diacid = O=C(O)CCCCCCCCCCCCCCCCC(=O)*; γGlu = O=C(O)[C@H](CCC(=O)[*:2])N[*:1]; αMeL = CC(C)C[C@](C)(N)C(=O)O; AEEA = NCCOCCOCC(=O)O; Aib = CC(C)(N)C(=O)O

Tests used:
human Gcg receptor = target: T1, human Gcg receptor (Homo sapiens, UniProt P47871); assay: [125I]-Glucagon binding (SPA), human Gcg receptor; details: read-out: hGLcgR Ki, nM (SEM, n)
T1 construct: expressed in transfected cells; crude membranes
T1 sequence (P47871 26-477): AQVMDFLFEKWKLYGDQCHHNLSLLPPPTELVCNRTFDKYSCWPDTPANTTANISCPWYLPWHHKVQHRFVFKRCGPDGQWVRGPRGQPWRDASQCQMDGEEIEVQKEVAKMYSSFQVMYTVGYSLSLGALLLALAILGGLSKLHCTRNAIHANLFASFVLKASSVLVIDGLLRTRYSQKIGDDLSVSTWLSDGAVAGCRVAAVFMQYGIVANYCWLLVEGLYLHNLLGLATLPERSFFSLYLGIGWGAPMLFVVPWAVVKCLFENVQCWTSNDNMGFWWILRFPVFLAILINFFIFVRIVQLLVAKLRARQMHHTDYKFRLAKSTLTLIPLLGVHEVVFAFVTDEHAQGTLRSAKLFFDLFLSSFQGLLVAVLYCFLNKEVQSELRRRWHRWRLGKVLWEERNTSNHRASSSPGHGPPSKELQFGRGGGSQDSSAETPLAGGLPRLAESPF
Summary of the method: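 Scintillation counts are taken after membranes and WGA beads incubate and settle for 12 hours at room temperature. Buffer is 25 mM HEPES, pH 7.4, with CaCl2, MgCl2, bacitracin and Tween-20. Ki values, from four-parameter IC50 fits, are geometric means over independent days.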

human GLP-1R [1] = target: T2, human GLP-1R (Homo sapiens, UniProt P43220); assay: [125I]-GLP-1 binding (SPA), human GLP-1 receptor; design: expressed in transfected cells; crude membranes; details: read-out: hGLP1R Ki, (nM) (SEM, n)
T2 sequence (P43220 24-463): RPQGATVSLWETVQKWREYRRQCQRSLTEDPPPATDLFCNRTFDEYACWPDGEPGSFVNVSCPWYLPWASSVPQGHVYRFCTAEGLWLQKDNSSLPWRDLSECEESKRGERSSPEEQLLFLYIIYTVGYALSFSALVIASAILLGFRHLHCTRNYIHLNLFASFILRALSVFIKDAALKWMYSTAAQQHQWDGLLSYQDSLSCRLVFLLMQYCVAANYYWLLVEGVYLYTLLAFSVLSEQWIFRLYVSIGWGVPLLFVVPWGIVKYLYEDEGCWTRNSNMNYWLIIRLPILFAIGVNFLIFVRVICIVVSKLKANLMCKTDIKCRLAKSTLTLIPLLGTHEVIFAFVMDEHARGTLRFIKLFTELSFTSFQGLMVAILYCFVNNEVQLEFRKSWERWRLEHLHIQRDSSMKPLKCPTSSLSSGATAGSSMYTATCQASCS
Summary of the method: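 Frozen cell pellets are lysed on ice in hypotonic Tris buffer, pH 7.5, homogenized, and centrifuged to a membrane pellet resuspended at about 1 to 3 mg/mL. Binding is then measured in HEPES-based buffer at pH 7.4, and curves are fitted to give IC50 and Ki.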

[2] = target: human GLP-1 receptor (GLP-1R) (Homo sapiens, UniProt P43220); assay: cAMP pharmacological functional assay in presence of casein, hGLP-1R; type: cell-based; details: HEK293 cells expressing hGLP-1R, 0.1% Casein, geometric mean; read-out: hGLP1R cAMP Rel EC50 nM (SEM, n)
human GLP-1 receptor (GLP-1R), sequence (P43220 24-463): as above

[3] = target: T3, gastric inhibitory peptide receptor (GIPR) (Homo sapiens, UniProt P48546); assay: cAMP pharmacological functional assay in presence of casein, hGIPR; type: cell-based; details: HEK293 cells expressing hGIPR, 0.1% Casein, geometric mean; read-out: hGIPR cAMP Rel EC50 nM (SEM, n)
T3 sequence (P48546 22-466): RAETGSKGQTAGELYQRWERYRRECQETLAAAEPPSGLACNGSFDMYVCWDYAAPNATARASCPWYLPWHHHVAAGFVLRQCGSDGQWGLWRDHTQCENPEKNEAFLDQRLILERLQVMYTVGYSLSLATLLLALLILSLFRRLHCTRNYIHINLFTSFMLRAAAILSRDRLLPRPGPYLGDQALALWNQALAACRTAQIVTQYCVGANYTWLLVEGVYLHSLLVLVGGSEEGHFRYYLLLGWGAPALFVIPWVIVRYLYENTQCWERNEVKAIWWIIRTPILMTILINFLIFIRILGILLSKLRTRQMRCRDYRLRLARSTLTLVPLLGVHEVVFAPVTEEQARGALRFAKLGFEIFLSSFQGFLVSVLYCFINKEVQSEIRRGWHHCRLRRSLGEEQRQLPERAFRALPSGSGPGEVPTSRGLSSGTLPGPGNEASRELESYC

human GIP receptor = target: T4, human GIP receptor (Homo sapiens, UniProt P48546); assay: [125I]-GIP binding (SPA), human GIP receptor; details: read-out: hGIPR Ki, nM (SEM, n)
T4 construct: expressed in transfected cells; crude membranes
T4 sequence (P48546 22-466): T3 sequence (P48546 22-466)

human GLP-1R [4] = target: T2, human GLP-1R; assay: GLP-1R CHO cell β-arrestin recruitment assay; type: cell-based; design: host or cells: CHO-K1 PathHunter cells, assay-ready frozen; details: for EC50: CHO-K1 cells; for hGLP1R B-Arrestin2 % Top: normalized to GLP-1 maximum control
Excerpt: Activated G-protein coupled receptors can interact with the β-arrestin family of signalling proteins. […] CHO-K1 cells expressing Pro-Link-tagged Human GLP-1R and enzyme-acceptor-tagged β-arrestin-2 may be obtained from DiscoveRx and prepared as assay-ready frozen cells. Test peptides are solubilized in DMSO and serial dilutions are perfomed using the Echo acoustic dispenser (LabCyte). Assay media is the PathHunter Cell Assay Buffer (DiscoveRx) containing 0.1% w/v hydrolyzed Casein (Sigma). […] Plates are incubated for 90 minutes in a 37′C/5% C02 incubator and 10 ul of PathHunter detection reagent is added (DiscoveRx) and plates are incubated at room temperature for 60 minutes. Luminescence signal is measured. Peptide concentration-response curves fit to a four-parameter logistic model to calculate potency as an EC50.

[5] = PathHunter β-arrestin-2 recruitment, 0.1% casein, read-out: hGLP1R B-Arrestin2 Rel EC50 uM (SEM, n)

SMILES	Ki (human Gcg receptor) [nM]	Ki (human GLP-1R [1]) [nM]	EC50 [2] [nM]	EC50 [3] [nM]	Ki (human GIP receptor) [nM]	EC50 (human GLP-1R [4]; [5]) [µM]	hGLP1R B-Arrestin2 % Top (human GLP-1R [4]) [%]	EC50 (human GLP-1R [4]; 0.1% w/v hydrolyzed Casein, read-out: hGLP1R B-Arrestin2 Rel EC50) [µM]
CC[C@H](C)[C@H](NC(=O)[C@H](CC(C)C)NC(=O)[C@H](Cc1ccc(O)cc1)NC(=O)[C@H](CCC(=O)O)NC(=O)[C@@H](NC(=O)[C@H](Cc1ccccc1)NC(=O)[C@@H](NC(=O)C(C)(C)NC(=O)[C@H](CCC(N)=O)NC(=O)[C@H](C)NC(=O)[C@H](CCCCNC(=O)COCCOCCNC(=O)COCCOCCNC(=O)CC[C@H](NC(=O)CCCCCCCCCCCCCCCCC(=O)O)C(=O)O)NC(=O)[C@H](CCCCN)NC(=O)[C@H](CC(=O)O)NC(=O)[C@H](CC(C)C)NC(=O)[C@H](CC(C)C)NC(=O)[C@@H](NC(=O)[C@H](CO)NC(=O)[C@H](Cc1ccc(O)cc1)NC(=O)[C@H](CC(=O)O)NC(=O)[C@H](CO)NC(=O)[C@@H](NC(=O)[C@H](Cc1ccccc1)NC(=O)[C@@H](NC(=O)CNC(=O)[C@H](CCC(=O)O)NC(=O)C(C)(C)NC(=O)[C@@H](N)Cc1ccc(O)cc1)[C@@H](C)O)[C@@H](C)O)[C@@H](C)CC)[C@@H](C)O)[C@@H](C)CC)C(=O)N[C@@H](CCC(=O)O)C(=O)NCC(=O)NCC(=O)N1CCC[C@H]1C(=O)N[C@@H](CO)C(=O)N[C@@H](CO)C(=O)NCC(N)=O [Example 321] (H-Y[Aib]EGTFTSDYSILLDKK([AEEA-AEEA-γGlu-C18 diacid])AQ[Aib]TFIEYLIEGGPSSG-NH2)	770	4.2	0.204	0.0752	0.064	–	–	–
CC[C@H](C)[C@H](NC(=O)[C@H](CC(C)C)NC(=O)[C@H](Cc1ccc(O)cc1)NC(=O)[C@H](CCC(=O)O)NC(=O)[C@@H](NC(=O)[C@H](Cc1ccccc1)NC(=O)[C@H](Cc1c[nH]cn1)NC(=O)C(C)(C)NC(=O)[C@H](CCC(N)=O)NC(=O)[C@H](C)NC(=O)[C@H](CCCCNC(=O)COCCOCCNC(=O)COCCOCCNC(=O)CC[C@H](NC(=O)CCCCCCCCCCCCCCCCC(=O)O)C(=O)O)NC(=O)[C@H](CCCCN)NC(=O)[C@H](CC(=O)O)NC(=O)[C@H](CC(C)C)NC(=O)[C@H](CC(C)C)NC(=O)[C@@H](NC(=O)[C@H](CO)NC(=O)[C@H](Cc1ccc(O)cc1)NC(=O)[C@H](CC(=O)O)NC(=O)[C@H](CO)NC(=O)[C@@H](NC(=O)[C@H](Cc1ccccc1)NC(=O)[C@@H](NC(=O)CNC(=O)[C@H](CCC(=O)O)NC(=O)C(C)(C)NC(=O)[C@@H](N)Cc1ccc(O)cc1)[C@@H](C)O)[C@@H](C)O)[C@@H](C)CC)[C@@H](C)CC)C(=O)N[C@@H](CCC(=O)O)C(=O)NCC(=O)NCC(=O)N1CCC[C@H]1C(=O)N[C@@H](CO)C(=O)N[C@@H](CO)C(=O)NCC(N)=O [Example 322] (H-Y[Aib]EGTFTSDYSILLDKK([AEEA-AEEA-γGlu-C18 diacid])AQ[Aib]HFIEYLIEGGPSSG-NH2)	1030	2.31	0.711	0.146	0.175	–	–	–
CC[C@H](C)[C@H](NC(=O)[C@H](CC(C)C)NC(=O)[C@H](Cc1ccc(O)cc1)NC(=O)[C@H](CCC(=O)O)NC(=O)[C@@H](NC(=O)[C@H](Cc1ccccc1)NC(=O)[C@H](CCC(=O)O)NC(=O)C(C)(C)NC(=O)[C@H](CCC(N)=O)NC(=O)[C@H](C)NC(=O)[C@H](CCCCNC(=O)COCCOCCNC(=O)COCCOCCNC(=O)CC[C@H](NC(=O)CCCCCCCCCCCCCCCCCCC(=O)O)C(=O)O)NC(=O)[C@H](CCCCN)NC(=O)[C@H](CC(=O)O)NC(=O)[C@H](CC(C)C)NC(=O)[C@](C)(CC(C)C)NC(=O)[C@@H](NC(=O)[C@H](CO)NC(=O)[C@H](Cc1ccc(O)cc1)NC(=O)[C@H](CC(=O)O)NC(=O)[C@H](CO)NC(=O)[C@@H](NC(=O)[C@H](Cc1ccccc1)NC(=O)[C@@H](NC(=O)CNC(=O)[C@H](CCC(=O)O)NC(=O)C(C)(C)NC(=O)[C@@H](N)Cc1ccccc1)[C@@H](C)O)[C@@H](C)O)[C@@H](C)CC)[C@@H](C)CC)C(=O)N[C@@H](C)C(=O)NCC(=O)NCC(=O)N1CCC[C@H]1C(=O)N[C@@H](CO)C(=O)N[C@@H](CO)C(=O)NCC(=O)N[C@@H](C)C(=O)N1CCC[C@H]1C(=O)N1CCC[C@H]1C(=O)N1CCC[C@H]1C(=O)N[C@@H](CO)C(N)=O [Example 338] (H-F[Aib]EGTFTSDYSI[αMeL]LDKK([AEEA-AEEA-γGlu-C20 diacid])AQ[Aib]EFIEYLIAGGPSSGAPPPS-NH2)	> 1060	3.23	0.174	0.0472	0.0831	0.0189	47	–
CC[C@H](C)[C@H](NC(=O)[C@H](CC(C)C)NC(=O)[C@H](Cc1ccc(O)cc1)NC(=O)[C@@H](CCC(=O)O)NC(=O)[C@@H](NC(=O)[C@H](Cc1ccccc1)NC(=O)[C@H](C)NC(=O)C(C)(C)NC(=O)[C@H](CCC(N)=O)NC(=O)[C@H](C)NC(=O)[C@H](CCCCNC(=O)COCCOCCNC(=O)COCCOCCNC(=O)CC[C@H](NC(=O)CCCCCCCCCCCCCCCCCCC(=O)O)C(=O)O)NC(=O)[C@H](CCCCN)NC(=O)[C@H](CC(=O)O)NC(=O)[C@H](CC(C)C)NC(=O)[C@](C)(CC(C)C)NC(=O)[C@@H](NC(=O)[C@H](CO)NC(=O)[C@H](Cc1ccc(O)cc1)NC(=O)[C@H](CC(=O)O)NC(=O)[C@H](CO)NC(=O)[C@@H](NC(=O)[C@H](Cc1ccccc1)NC(=O)[C@@H](NC(=O)CNC(=O)[C@H](CCC(=O)O)NC(=O)C(C)(C)NC(=O)[C@H](N)Cc1ccc(O)cc1)[C@@H](C)O)[C@@H](C)O)[C@@H](C)CC)[C@@H](C)CC)C(=O)N[C@@H](CCC(=O)O)C(=O)NCC(=O)NCC(=O)N1CCC[C@H]1C(=O)N[C@@H](CO)C(=O)N[C@@H](CO)C(=O)NCC(=O)N[C@@H](C)C(=O)N1CCC[C@H]1C(=O)N1CCC[C@H]1C(=O)N1CCC[C@H]1C(=O)N[C@@H](CO)C(N)=O [Example 356]	> 1010	10.3	0.506	0.386	0.35	> 10.5	–	> 10.5
CC[C@H](C)[C@H](NC(=O)[C@H](CC(C)C)NC(=O)[C@H](Cc1ccc(O)cc1)NC(=O)[C@@H](CCC(=O)O)NC(=O)[C@@H](NC(=O)[C@H](Cc1ccccc1)NC(=O)[C@H](C)NC(=O)C(C)(C)NC(=O)[C@H](CCC(N)=O)NC(=O)[C@H](C)NC(=O)[C@H](CCCCNC(=O)COCCOCCNC(=O)COCCOCCNC(=O)CC[C@H](NC(=O)CCCCCCCCCCCCCCCCCCC(=O)O)C(=O)O)NC(=O)[C@H](CCCCN)NC(=O)[C@H](CC(=O)O)NC(=O)[C@H](CC(C)C)NC(=O)[C@](C)(CC(C)C)NC(=O)[C@@H](NC(=O)[C@H](CO)NC(=O)[C@H](Cc1ccc(O)cc1)NC(=O)[C@H](CC(=O)O)NC(=O)[C@H](CO)NC(=O)[C@@H](NC(=O)[C@H](Cc1ccccc1)NC(=O)[C@@H](NC(=O)CNC(=O)[C@H](CCC(=O)O)NC(=O)C(C)(C)NC(=O)[C@H](N)Cc1ccc(O)cc1)[C@@H](C)O)[C@@H](C)O)[C@@H](C)CC)C(C)C)C(=O)N[C@@H](C)C(=O)NCC(=O)NCC(=O)N1CCC[C@H]1C(=O)N[C@@H](CO)C(=O)N[C@@H](CO)C(=O)NCC(=O)N[C@@H](C)C(=O)N1CCC[C@H]1C(=O)N1CCC[C@H]1C(=O)N1CCC[C@H]1C(=O)N[C@@H](CO)C(N)=O [Example 361] (H-[dY][Aib]EGTFTSDYSI[αMeL]LDKK([AEEA-AEEA-γGlu-C20 diacid])AQ[Aib]AFV[dE]YLIAGGPSSGAPPPS-NH2)	–	–	0.955	0.401	–	0.269	20.2	–
